# Results from publication PMC6471559, “Design and Synthesis of a New Soluble Natural β-Carboline Derivative for Preclinical Study by Intravenous Injection” (International Journal of Molecular Sciences, 2019).
# Entries after “also recorded” stand apart in the source; their conditions may differ. Read-outs that look alike come from different tables or passages of the source.
# Tests used:
# [1] = test system: A549 human lung carcinoma cells; assay: MTT antiproliferative assay, 72 h; format: cell-based
# Method: (§1) Antiproliferative activity of compound 2 was evaluated using a colorimetric MTT assay for 72 h. […] Compound 2 activity was studied on different cancer cell lines: two glioma cell lines (T98G, Hs683), one breast cancer cell line (MDA-MB-231), one lung cancer cell line (A549) and one pancreatic cell line (PANC-1). A mean submicromolar antiproliferative activity was observed (Table 2). […] Cytotoxicity of compound 2 against normal cells (epithelial breast cells MCF-10a) vs. cancer cells (MDA-MB-231) was also determined. […] MDA-MB-231 human breast cancer cells, T98G human brain cancer cells and PANC-1 human epithelioid carcinoma were maintained in culture in 75-cm^2 polystyrene flasks (Corning®, […], Luxembourg) with respectively 15 mL of Dulbecco's modified Eagle's medium (#341966-029 DMEM 1X; ThermoFisher, Gibco®, Geel, Belgium) containing 4.5g/L of glucose, 10% of fetal calf serum (#10270 ThermoFisher, Gibco®, Geel, Belgium) and supplemented with penicillin-streptomycin 10,000 U/mL (#15140 ThermoFisher, Gibco®, Geel, Belgium) incubated under an atmosphere containing 5% CO2. HS683 human glioma and A549 human lung carcinoma were maintained in culture in 75-cm^2 polystyrene flasks (Corning®) with respectively 15 mL of Roswell Park Memorial Institute medium (Gibco® RPMI 1640, Thermofisher, Geel, Belgium) containing 10% of fetal calf serum (#10270 ThermoFisher, Gibco®, Geel, Belgium) and supplemented with penicillin-streptomycin 10,000 U/mL (#15140 ThermoFisher, Gibco®, Geel, Belgium), glutamine (200 mM) and HEPES (25 mM) incubated under an atmosphere containing 5% CO2. MCF-10-a human non-tumorigenic breast epithelial cells were maintained in 75-cm^2 polystyrene flasks (Corning®, […], Luxembourg) with 15 mL of Gibco®, Geel, Belgium) F-12 Nutrient Mixture (Ham) containing 5% of horse serum (Invitrogen®) supplemented with 10 μg/mL of human Insulin (Sigma®, Schnelldorf, Germany), 0.5 μ/mL of Hydrocortisone (Sigma®, Schnelldorf, Germany) and 20 ng/mL of Epidermal Growth Factor (Peprotech®, London, UK) incubated under an atmosphere containing 5% CO2. The cell lines were obtained from the American Type Culture Collection (ATCC, Manassas, VA). Antiproliferative activity and overall cytotoxicity of compound 2 on cancer and normal cells lines (breast cancer cell line MDA-MB231 and non-tumorigenic breast epithelial cells (MCF-10a) were determined in vitro using colorimetric MTT (Sigma-Aldrich (Schnelldorf, Germany)) solution (0.5 mg/mL in PBS) assay according to a protocol adapted from. Cells were seeded in 96-well culture plate (1200 cells/well 1 day before incubation and were treated for 72 h in culture medium at 37 °C with different concentrations of compound 2 ranging from 1 nM to 10 μM, with semilog concentration increasing of the compound. The yellow MTT product was converted to a purple formazan derivative through mitochondrial enzymatic reduction. At the end of the incubation of 4 h, the plate was centrifugated at 1200 rpm for 5 min and the MTT solution was decanted. Then, blue formazan was solubilized with DMSO and absorbance at 570 nm, which is directly proportional to the number of metabolic active cells, is determined. Experiments were carried out in sextuplicates.
# [2] = test system: PANC-1 human epithelioid carcinoma cells; assay: MTT antiproliferative assay, 72 h; format: cell-based
# Method: as §1
# [3] = test system: MDA-MB-231 human breast cancer cells; assay: MTT antiproliferative assay, 72 h; format: cell-based
# Method: as §1
# [4] = test system: T98G human brain cancer cells; assay: MTT antiproliferative assay, 72 h; format: cell-based
# Method: as §1
# Hs683 human glioma cells = assay: MTT antiproliferative assay, 72 h; format: cell-based
# Method: as §1
# [5] = Stability in three media by UV spectra from 0 h to 72 h at 37 °C; format: physicochemical; conditions: pH 1.1, pH 7.4 and simulated injection vehicle (0.9% NaCl, 0.1% Polysorbate 80)
# Method: (§2) Compound 2 solubility and stability measurements were performed at 37 °C at pH 1.1 (0.02 M NaCl, pH 1.1 obtained by HCl addition) to mimic gastric conditions, at pH 7.4 (0.050 M Na2HPO4/NaH2PO4 and 0.02 M NaCl, pH 7.4) and simulated injection vehicle (0.9% NaCl and 0.1% Polysorbate 80). Stability measurements were performed from 0 h to 72 h after complete solubilization. […] At pH 1.1 as well as in the simulated injection vehicle, a higher solubility is observed in comparison with the solubility at physiological pH. Solubility is 1.06 ± 0.08 mg/mL at physiological pH, 1.62 ± 0.13 mg/mL at acidic pH, as well as 1.87 ± 0.07 mg/mL in a simulated vehicle injection (Table 1).
# We have evaluated the stability of compound 2 in three different conditions (at pH 1.1, at pH 7.4 and in a simulated injection vehicle) for three days and at 37 °C because it is compatible with physiological temperature and because a higher temperature can result in a better solubilization. We observe that the compound remains stable for at least three days in the three different solutions tested, which allowed determination of its thermodynamic solubility. […]
# [6] = test system: A549, MDA-MB-231, PANC-1, T98G and Hs683 cell lines; assay: MTT antiproliferative assay, 72 h, summary over five cancer cell lines; format: cell-based; conditions: Homo sapiens, A549, MDA-MB-231, PANC-1, T98G and Hs683, MTT, read-out: IC50 range over five cancer cell lines
# Method: (§3) Antiproliferative activity of compound 2 was evaluated using a colorimetric MTT assay for 72 h. […] Compound 2 activity was studied on different cancer cell lines: two glioma cell lines (T98G, Hs683), one breast cancer cell line (MDA-MB-231), one lung cancer cell line (A549) and one pancreatic cell line (PANC-1). A mean submicromolar antiproliferative activity was observed (Table 2). […] Cytotoxicity of compound 2 against normal cells (epithelial breast cells MCF-10a) vs. cancer cells (MDA-MB-231) was also determined. […] Antiproliferative activity and overall cytotoxicity of compound 2 on cancer and normal cells lines (breast cancer cell line MDA-MB231 and non-tumorigenic breast epithelial cells (MCF-10a) were determined in vitro using colorimetric MTT (Sigma-Aldrich (Schnelldorf, Germany)) solution (0.5 mg/mL in PBS) assay according to a protocol adapted from. Cells were seeded in 96-well culture plate (1200 cells/well 1 day before incubation and were treated for 72 h in culture medium at 37 °C with different concentrations of compound 2 ranging from 1 nM to 10 μM, with semilog concentration increasing of the compound. […] Then, blue formazan was solubilized with DMSO and absorbance at 570 nm, which is directly proportional to the number of metabolic active cells, is determined. […]
# [7] = Thermodynamic solubility by UV absorbance at 330 nm after 72 h stirring at 37 °C; format: physicochemical; conditions: thermodynamic from solid
# Method: as §2
# Solubility of compound 2 was evaluated at 37 °C, at pH 1.1 (0.02 M NaCl, pH 1.1 obtained by HCl addition), at physiological pH (buffer 0.050 M Na2HPO4/NaH2PO4 and 0.02 M NaCl, pH 7.4) as well as in a simulated injection vehicle (0.9% NaCl and 0.1% Polysorbate 80 pH 7.4). To this aim, an excess of compound 2 was placed in the […] media in a 24 well plate and stirred (1200 rpm) 72 h at 37 °C after hermetic sealing. After 72 h of stirring, the solutions were filtered (0.2 µm) and diluted 100 times. The solubility was determined by UV absorbance at 330 nm using a calibration curve (five points in a range of concentration between 0.005 and 0.1 mg/mL). All measurements were made in triplicate and adequate dissolutions were performed to stay in Beer-Lambert conditions.
# [8] = test system: MCF-10a human non-tumorigenic breast epithelial cells; assay: MTT cytotoxicity on normal cells vs. cancer cells; format: cell-based; conditions: in the IC50 concentration range
# Method: as §3
# [9] = Kinetic solubility by HPLC, Multiscreen Solubility Filter plate; format: physicochemical
# Text: From those data, we chose an isopentyl substituent on position 7, which is suitable to decrease neurotoxicity of the targeted compound. We selected a propyl group on position 9 as a short alkyl substituent, seems to be suitable to maintain good antiproliferative properties. […] This high activity can result in low administered doses, thus counter-balancing the low LD50 associated with this N^2 substitution. […] It has been shown that pyridine scaffold in lead compounds can result in higher solubility because of the presence of the heteroatom. Finally, the pyridyl group offers good potential for salification and/or cocrystallization which can also improve pharmacological properties.
# The kinetic solubility of compounds 1a and 1b was determined by HPLC method, using a Multiscreen Solubility Filter 96-well plate (Merck®) using a test adapted from. First, the calibration curve was performed from five solutions (3.13 µM 12.5 µM, 50 µM, 200 µM and 500 µM, with a final DMSO concentration of 5%). The kinetic solubility was measured in triplicate at physiological pH in phosphate buffer (0.05 M Na2HPO4; 0.02 M NaCl adjusted at physiological pH using solution NaH2PO4 0.05 M; NaCl 0.02 M) and in acidic condition (0.2 M HCl, 0.03 M NaCl adjusted at pH = 1.1 using HCl 37%). […]
compound,measurement,setting,value
"CCCn1c2cc(OCCC(C)C)ccc2c2cc[n+](Cc3ccccn3)c(C)c21.[Br-] [compound 2, 1-methyl-7-(3-methylbutoxy)-9-propyl-2-[(pyridin-2-yl)methyl]-9H-pyrido[3,4-b]indol-2-ium bromide]",Cytostatic at IC50,"[1]; A549, metabolic activity at IC50 compared with T = 0 h",cytostatic behavior; also recorded: cytostatic effect
same,IC50,"[1]; Homo sapiens, A549, MTT, 72 h",261 nM
same,IC50,"[2]; Homo sapiens, PANC-1, MTT, 72 h",350 nM
same,Cytostatic at IC50,"[2]; PANC-1, metabolic activity at IC50 compared with T = 0 h",No
same,IC50,"[3]; Homo sapiens, MDA-MB-231, MTT, 72 h",449 nM
same,Cytostatic at IC50,"[3]; MDA-MB-231, metabolic activity at IC50 compared with T = 0 h",cytostatic behavior; also recorded: cytostatic effect
same,IC50,"[4]; Homo sapiens, MTT, 72 h",2190 nM
same,Cytostatic at IC50,[4]; metabolic activity at IC50 compared with T = 0 h,No
same,IC50,Hs683 human glioma cells,305 nM
same,IC50,"Hs683 human glioma cells; Homo sapiens, Hs 683, 72 h",< 500 nM
same,Time for which the compound is stable (no modification of UV spectra),[5],at least 72 h
same,IC50,[6],200 to 2000 nM
same,solubility thermodynamic at 72 h,"[7]; 0.02 M NaCl solution acidified with HCl, pH 1.1, simulated gastric fluid, pH 1.1 (0.02 M NaCl, HCl), read-out: Mean thermodynamic solubility at 37 °C",1620 ± 130 µg/mL
same,solubility thermodynamic at 72 h,"[7]; 0.02 M NaCl solution acidified with HCl, pH 1.1, simulated gastric fluid, pH 1.1 (0.02 M NaCl, HCl), read-out: Thermodynamic solubility at 37 °C replicate 1",1460 ± 10 µg/mL
same,solubility thermodynamic at 72 h,"[7]; 0.02 M NaCl solution acidified with HCl, pH 1.1, simulated gastric fluid, pH 1.1 (0.02 M NaCl, HCl), read-out: Thermodynamic solubility at 37 °C replicate 2",1630 ± 20 µg/mL
same,solubility thermodynamic at 72 h,"[7]; 0.02 M NaCl solution acidified with HCl, pH 1.1, simulated gastric fluid, pH 1.1 (0.02 M NaCl, HCl), read-out: Thermodynamic solubility at 37 °C replicate 3",1770 ± 10 µg/mL
same,solubility thermodynamic at 72 h,"[7]; phosphate buffer, pH 7.4, aqueous buffer, pH 7.4 phosphate buffer, read-out: Mean thermodynamic solubility at 37 °C",1060 ± 80 µg/mL
same,solubility thermodynamic at 72 h,"[7]; phosphate buffer, pH 7.4, aqueous buffer, pH 7.4 phosphate buffer, read-out: Thermodynamic solubility at 37 °C replicate 1",980 ± 10 µg/mL
same,solubility thermodynamic at 72 h,"[7]; phosphate buffer, pH 7.4, aqueous buffer, pH 7.4 phosphate buffer, read-out: Thermodynamic solubility at 37 °C replicate 2",990 ± 10 µg/mL
same,solubility thermodynamic at 72 h,"[7]; phosphate buffer, pH 7.4, aqueous buffer, pH 7.4 phosphate buffer, read-out: Thermodynamic solubility at 37 °C replicate 3",1150 ± 10 µg/mL
same,solubility thermodynamic at 72 h,"[7]; simulated injection vehicle, pH 7.4, aqueous with cosolvent or surfactant or cyclodextrin, injection vehicle (0.9% NaCl and 0.1% Polysorbate 80), read-out: Mean thermodynamic solubility at 37 °C",1870 ± 70 µg/mL
same,solubility thermodynamic at 72 h,"[7]; simulated injection vehicle, pH 7.4, aqueous with cosolvent or surfactant or cyclodextrin, injection vehicle (0.9% NaCl and 0.1% Polysorbate 80), read-out: Thermodynamic solubility at 37 °C replicate 1",1950 ± 10 µg/mL
same,solubility thermodynamic at 72 h,"[7]; simulated injection vehicle, pH 7.4, aqueous with cosolvent or surfactant or cyclodextrin, injection vehicle (0.9% NaCl and 0.1% Polysorbate 80), read-out: Thermodynamic solubility at 37 °C replicate 2",1900 ± 40 µg/mL
same,solubility thermodynamic at 72 h,"[7]; simulated injection vehicle, pH 7.4, aqueous with cosolvent or surfactant or cyclodextrin, injection vehicle (0.9% NaCl and 0.1% Polysorbate 80), read-out: Thermodynamic solubility at 37 °C replicate 3",1770 ± 10 µg/mL
same,Activity on normal cells (MCF-10a) vs. cancer cells (MDA-MB-231),[8],more active on a cancer cell line than on normal cells
same,Activity on normal cells (MCF-10a) vs. cancer cells (MDA-MB-231),"[8]; listed as 1-methyl-7-(3-methylbutoxy)-9-propyl-2-[(pyridin-2-yl)methyl]-9H-pyrido[3,4-b]in",more active on cancer cells (MDA-MB-231) than on normal cells (MCF-10a)
"Cc1nccc2c1[nH]c1cc(OCCC(C)C)ccc12 [1a, 1-methyl-7-(3-methylbutoxy)-9H-pyrido[3,4-b]indole]",Kinetic solubility at low pH,[9]; pH 1.1,good solubility at low pH
"CCCn1c2cc(OCCC(C)C)ccc2c2ccnc(C)c21 [1b, 1-methyl-7-(3-methylbutoxy)-9-propyl-9H-pyrido[3,4-b]indole]",Kinetic solubility at low pH,"[9]; acidic condition pH 1.1, 5% DMSO, preliminary data, values only in Figure 2B",good solubility at low pH
